Data on 18 compounds can be found in ChEMBL document CHEMBL3826952, “Design and Synthesis of 2-Alkylpyrimidine-4,6-diol and 6-Alkylpyridine-2,4-diol as Potent GPR84 Agonists” (ACS Med Chem Lett, 2016).

pEC50: −log10 of the molar value. Active and inactive are the calls of the source. No cut-off for these calls is given here.

Series [1] addresses T1, Free fatty acid receptor 4 (Homo sapiens) (UniProt Q5NUL3).
T1 sequence (whole entry): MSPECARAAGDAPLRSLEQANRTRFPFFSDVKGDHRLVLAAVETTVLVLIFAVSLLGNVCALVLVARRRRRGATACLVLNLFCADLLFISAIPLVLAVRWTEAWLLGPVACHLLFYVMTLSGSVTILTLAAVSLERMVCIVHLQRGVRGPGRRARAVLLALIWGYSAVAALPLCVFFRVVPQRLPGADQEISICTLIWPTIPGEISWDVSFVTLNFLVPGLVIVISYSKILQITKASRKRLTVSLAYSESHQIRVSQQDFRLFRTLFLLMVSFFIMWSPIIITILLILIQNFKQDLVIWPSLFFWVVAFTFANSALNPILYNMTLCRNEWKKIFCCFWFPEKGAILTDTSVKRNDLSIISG
Put plainly: Agonist activity at GPR120 (unknown origin) up to 100 uM by Fluo-4 AM dye based calcium mobilization assay. It counts as functional. On the technique in general: Calcium assays in cells follow changes in intracellular calcium, usually with a dye or a luminescent sensor.

Series [2] is described as follows: Cmax in ICR mouse plasma at 10 mg/kg, po administered through gavage measured up to 24 hrs post dose by LC-MS/MS analysis. It counts as ADME, organism-based. Set-up: dose 10 mg/kg, route oral.
For series [3], the target named is T2, Glucose-dependent insulinotropic receptor (Homo sapiens) (UniProt Q8TDV5).
T2 sequence (whole entry): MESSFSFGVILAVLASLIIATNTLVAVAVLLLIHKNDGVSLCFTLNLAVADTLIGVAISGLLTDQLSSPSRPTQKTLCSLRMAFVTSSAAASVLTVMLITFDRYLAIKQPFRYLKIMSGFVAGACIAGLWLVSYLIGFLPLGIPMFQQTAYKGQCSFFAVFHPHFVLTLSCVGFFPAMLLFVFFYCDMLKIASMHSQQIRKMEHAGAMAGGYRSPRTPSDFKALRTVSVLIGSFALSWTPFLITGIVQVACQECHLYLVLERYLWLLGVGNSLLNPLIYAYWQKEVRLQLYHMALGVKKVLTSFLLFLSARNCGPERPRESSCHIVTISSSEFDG
The experiment in a line: Agonist activity at GPR119 (unknown origin) up to 100 uM by Fluo-4 AM dye based calcium mobilization assay. In kind it is functional.

Series [4] addresses T3, Free fatty acid receptor 1 (Homo sapiens, UniProt O14842). The experiment in a line: Agonist activity at GPR40 (unknown origin) up to 100 uM by Fluo-4 AM dye based calcium mobilization assay. In kind it is functional.
A short description of series [5]: Oral bioavailability in ICR mouse at 10 mg/kg administered through gavage measured up to 24 hrs post dose by LC-MS/MS analysis. In kind it is ADME, organism-based. To be noted: in vivo.
Series [6] in a line: AUC (0 to t) in ICR mouse plasma at 10 mg/kg, po administered through gavage measured up to 24 hrs post dose by LC-MS/MS analysis. Also on record: time < 24 hr, dose 10 mg/kg, route oral. In kind it is ADME, organism-based.
Series [7] addresses T4, Free fatty acid receptor 3 (Homo sapiens) (UniProt O14843).
T4 sequence (whole entry): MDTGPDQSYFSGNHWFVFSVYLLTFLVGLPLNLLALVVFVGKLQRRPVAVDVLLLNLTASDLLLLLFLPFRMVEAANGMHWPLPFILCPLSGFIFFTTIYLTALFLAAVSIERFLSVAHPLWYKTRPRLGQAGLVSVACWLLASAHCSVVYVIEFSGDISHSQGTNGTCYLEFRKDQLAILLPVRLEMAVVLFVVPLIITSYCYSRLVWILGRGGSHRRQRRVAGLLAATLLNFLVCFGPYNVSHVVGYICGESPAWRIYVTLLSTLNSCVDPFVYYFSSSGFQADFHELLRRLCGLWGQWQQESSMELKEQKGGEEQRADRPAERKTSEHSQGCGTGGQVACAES
The experiment in a line: Agonist activity at GPR41 (unknown origin) up to 100 uM by Fluo-4 AM dye based calcium mobilization assay. In kind it is functional.

Series [8] has as its target G-protein coupled receptor 84 (Homo sapiens, UniProt Q9NQS5). The experiment in a line: Agonist activity at GPR84 (unknown origin) expressed in HEK293 cells coexpressing Galpha16 protein by Fluo-4 AM dye based calcium mobilization assay. It counts as functional, cell-based.
Series [9] addresses T3, Free fatty acid receptor 1. Put plainly: Agonist activity at GPR40 (unknown origin) by Fluo-4 AM dye based calcium mobilization assay. In kind it is functional.
For series [10], the target named is T5, Glucose-dependent insulinotropic receptor (Homo sapiens, UniProt Q8TDV5).
T5 sequence (Q8TDV5 whole entry): T2 sequence (whole entry)
Put plainly: Agonist activity at GPR119 (unknown origin) by Fluo-4 AM dye based calcium mobilization assay. In kind it is functional.

Series [11] addresses T6, Free fatty acid receptor 3 (Homo sapiens, UniProt O14843).
T6 sequence (O14843 whole entry): T4 sequence (whole entry)
Put plainly: Agonist activity at GPR41 (unknown origin) by Fluo-4 AM dye based calcium mobilization assay. In kind it is functional.

Chain of G-protein coupled receptor 84 (Q9NQS5 whole entry): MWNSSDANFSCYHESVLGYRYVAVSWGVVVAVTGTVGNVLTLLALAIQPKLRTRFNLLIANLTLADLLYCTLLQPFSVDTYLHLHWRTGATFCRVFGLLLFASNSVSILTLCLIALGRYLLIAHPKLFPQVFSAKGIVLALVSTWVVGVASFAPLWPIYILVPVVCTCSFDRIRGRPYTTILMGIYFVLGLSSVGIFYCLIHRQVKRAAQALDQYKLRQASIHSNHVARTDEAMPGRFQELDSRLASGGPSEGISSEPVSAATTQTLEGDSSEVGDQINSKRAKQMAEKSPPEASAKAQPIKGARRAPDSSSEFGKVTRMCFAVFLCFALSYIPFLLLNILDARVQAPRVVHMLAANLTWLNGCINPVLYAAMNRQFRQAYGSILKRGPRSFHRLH
T3 sequence (O14842 whole entry): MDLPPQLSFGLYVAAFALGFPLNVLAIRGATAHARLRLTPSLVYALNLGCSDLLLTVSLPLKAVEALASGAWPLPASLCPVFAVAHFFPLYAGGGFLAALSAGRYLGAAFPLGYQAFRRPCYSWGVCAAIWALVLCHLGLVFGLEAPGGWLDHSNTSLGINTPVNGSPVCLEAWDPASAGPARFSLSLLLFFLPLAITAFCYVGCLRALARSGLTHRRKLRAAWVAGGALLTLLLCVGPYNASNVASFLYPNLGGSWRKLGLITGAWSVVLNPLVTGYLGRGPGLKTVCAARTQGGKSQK

The term Cmax denotes the maximum level reached in the sampled fluid or tissue. One may read the bioavailability as the share of a dose that reaches the circulation, judged against a reference dose that is usually intravenous. High values mean good availability, low ones poor availability. The term AUC(0-t) denotes the area under the concentration-time curve up to a stated or last time point. Lower therefore signals less exposure. Turning to `CCCCCCCCCc1cc(O)cc(O)n1`, the result in series [1], in series [3], in series [4] and in [7] was inactive. The compound also displayed a Cmax in [2] of 229 ng/mL. In series [5], this compound came in with a bioavailability of 24.3%. In series [6], this compound registered an area under the curve AUC(0-t) at 24 h of 399 ng·h/mL.

What is called pEC50 is the negative decadic logarithm of the EC50, by convention in mol/L. In the case of `Cc1c(O)nc(SCCCCc2ccccc2)nc1O`, the pEC50 in series [8] is under 4.00.

Regarding `N#CCCCCc1nc(O)cc(O)n1`, the pEC50 in series [8] is under 4.00.

Turning to `Nc1cc(O)nc(SCCCCc2ccccc2)n1`, the pEC50 in series [8] is under 4.00.

Regarding `CC/C=C\C/C=C\C/C=C\C/C=C\C/C=C\C/C=C\CCC(=O)O` [DOCONEXENT], the pEC50 in series [9] is 4.93.

Take `CC(C)(C)OC(=O)N1CCC(OCc2nc(-c3ccncc3)no2)CC1`: the pEC50 in series [10] is 5.29.

Regarding `CC/C=C\CCSc1nc(O)cc(O)n1`, the pEC50 in series [8] is 6.03.

In the case of `CCCCCCOc1cc(O)nc(SCCCCCC)n1`, the pEC50 in [8] is under 4.00.

As for `CCCCCCSc1nc(O)cc(=O)n1C`, the negative logarithm of the EC50 (pEC50) in series [8] was under 4.00.

For `C#CCCSc1nc(O)cc(O)n1`, the pEC50 in series [8] was 5.05.

Consider `CCCCCCSc1nc(OCCCCCCCO)cc(=O)[nH]1`, for which, in [8], the pEC50 is under 4.00.

Take `CCCCCCc1nc(O)cc(O)n1`: the negative logarithm of the EC50 (pEC50) in series [8] was 6.34.

As for `CCCC(=O)[O-].[Na+]` [SODIUM BUTYRATE], the pEC50 in series [11] is 5.00.

`Nc1cc(N)nc(SCCCCc2ccccc2)n1`: in series [8], the pEC50 was under 4.00.

For the compound `Cc1cc(O)nc(SCCCCc2ccccc2)n1`, the negative logarithm of the EC50 (pEC50) in series [8] was under 4.00.

With `OCCCCCCCCSc1nc(O)cc(O)n1`, the pEC50 in series [8] was under 4.00.

For `Oc1cc(C(F)(F)F)nc(SCCCCc2ccccc2)n1`, the pEC50 in series [8] was under 4.00.

`CCCCCCSc1nc(O)cc(=O)n1Cc1ccccc1`: in [8], the pEC50 is under 4.00.
